Test [1] addresses T1, Pleckstrin homology-like domain family B member 2 (PHLDB2) (Homo sapiens, UniProt Q86SQ0).
T1 construct: Protein extracts from human fibroblasts were incubated with magnetic beads; endogenous in cells; host or cells: human fibroblast lysate
T1 sequence (Q86SQ0 1-1253): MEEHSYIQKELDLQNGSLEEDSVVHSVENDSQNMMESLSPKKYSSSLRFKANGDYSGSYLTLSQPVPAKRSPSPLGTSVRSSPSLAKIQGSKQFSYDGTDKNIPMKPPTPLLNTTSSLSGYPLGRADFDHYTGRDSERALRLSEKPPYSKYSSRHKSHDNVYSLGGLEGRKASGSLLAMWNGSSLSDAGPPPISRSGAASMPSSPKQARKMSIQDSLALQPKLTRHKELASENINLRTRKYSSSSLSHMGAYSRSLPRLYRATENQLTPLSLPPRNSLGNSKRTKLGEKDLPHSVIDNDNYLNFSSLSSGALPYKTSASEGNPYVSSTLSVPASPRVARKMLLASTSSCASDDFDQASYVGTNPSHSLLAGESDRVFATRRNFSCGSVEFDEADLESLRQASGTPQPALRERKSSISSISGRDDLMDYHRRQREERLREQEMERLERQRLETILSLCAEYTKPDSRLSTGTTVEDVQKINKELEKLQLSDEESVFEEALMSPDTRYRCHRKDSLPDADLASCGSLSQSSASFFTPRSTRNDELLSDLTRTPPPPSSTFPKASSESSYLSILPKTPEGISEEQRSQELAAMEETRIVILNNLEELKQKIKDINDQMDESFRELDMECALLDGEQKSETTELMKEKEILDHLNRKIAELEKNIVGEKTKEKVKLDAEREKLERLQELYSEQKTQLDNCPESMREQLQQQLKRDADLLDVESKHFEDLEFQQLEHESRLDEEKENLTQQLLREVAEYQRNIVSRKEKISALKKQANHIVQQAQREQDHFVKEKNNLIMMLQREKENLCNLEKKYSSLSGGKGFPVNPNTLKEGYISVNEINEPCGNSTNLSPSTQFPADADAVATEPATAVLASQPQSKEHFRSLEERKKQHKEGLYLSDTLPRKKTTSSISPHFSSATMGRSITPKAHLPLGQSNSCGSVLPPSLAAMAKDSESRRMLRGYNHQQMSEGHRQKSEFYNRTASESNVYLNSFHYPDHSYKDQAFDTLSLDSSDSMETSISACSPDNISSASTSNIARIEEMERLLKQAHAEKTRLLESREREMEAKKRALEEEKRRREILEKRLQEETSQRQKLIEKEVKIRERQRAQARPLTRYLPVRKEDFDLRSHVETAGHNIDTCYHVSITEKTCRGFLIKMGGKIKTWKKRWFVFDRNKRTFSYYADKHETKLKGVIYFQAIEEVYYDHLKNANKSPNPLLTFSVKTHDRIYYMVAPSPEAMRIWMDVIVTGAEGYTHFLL
Put plainly: Affinity chromatography with NFX-beads and mass spectrometry. The class given is binding. Conditions: spectral counts, NFX coupled beads vs beads alone, human fibroblast extracts. The method, then: (§1) Fibroblasts were trypsinized and washed with PBS 1× then incubated in lysis buffer on ice during 20 minutes (Lysis buffer: Tris-HCl pH 7.5 50 mM, EDTA 2 mM, Triton X-100 0.1% supplemented with anti-protease and anti-phosphatase (Complete-Mini™—Roche). After centrifugation 15 minutes, 13 000 rpm at 4° C., supernatant was conserved and the protein concentration was determined using the Pierce BCA assay kit (Thermo Fisher Scientific).
(§2) 10 μL of magnetic beads and NFX-beads were washed three times in Bead buffer before to be resuspended 100 μL of Bead buffer (Bead buffer: Tris-HCl pH 7.5 50 mM, NaCl 150 mM, Triton X-100 0.1%, supplemented with anti-protease and anti-phosphatase (Complete-Mini™—Roche)) thanks to a magnetic rack (DynaMag-2 Ref 12321D Life Technologies). 800 μg of proteins were mixed with 100 μL of diluted beads and the final volume was set to 800 μL with Bead buffer. The proteins and the beads were incubated 30 minutes with rotation in a cold room. Using a magnetic rack, the beads were separated from the protein extract and washed three time with Bead buffer before to be resuspended in 75 μL of Laemmli2X. Laemmli with beads was put 5 minutes at 95° C. to eluate the proteins and the beads were discarded using a magnetic rack. 35 μL of the eluted proteins were subjected to SDS-PAGE and silver coloration (ProteoSilver™ Silver Stain Kit—Sigma Aldrich). Bands of interest were extracted from the gel and subjected to mass spectrometry.
(§3) Mass spectrometric identification and quantification of the pulled down proteins were performed as previously described (Shrivastava et al., EMBO, 2019, 38:e99871). The raw data were cleaned using the following pathway. First, only the proteins found to interact with the NFX coupled beads in the three replicates were kept for further analysis. […] The final proteins were then classified based on the fold chance and the p-value.
(§4) Identification of the NFX intracellular targets is a crucial step in understanding its mechanisms of action and to be able to improve its efficiency on a rational basis. To purify NFX-binding proteins, affinity chromatography purification was performed using magnetic beads. Protein extracts from human fibroblasts were incubated with magnetic beads alone or to which NFX has been covalently coupled (Scheme 1). Eluted fractions were subjected to SDS-PAGE electrophoresis and silver staining (FIG. 9A). The pattern was clearly different between eluted proteins from NFX-beads compared to those eluted form beads alone with 13 bands either appeared or were of a higher intensity with the NFX-beads (FIG. 9B). Excised bands were subjected to proteolytic digestion and mass spectrometry.

Test [2] deals with T2, Unconventional myosin-IXb (MYO9B) (Homo sapiens, UniProt Q13459).
T2 construct: Protein extracts from human fibroblasts were incubated with magnetic beads; endogenous in cells; host or cells: human fibroblast lysate
T2 sequence (Q13459 whole entry): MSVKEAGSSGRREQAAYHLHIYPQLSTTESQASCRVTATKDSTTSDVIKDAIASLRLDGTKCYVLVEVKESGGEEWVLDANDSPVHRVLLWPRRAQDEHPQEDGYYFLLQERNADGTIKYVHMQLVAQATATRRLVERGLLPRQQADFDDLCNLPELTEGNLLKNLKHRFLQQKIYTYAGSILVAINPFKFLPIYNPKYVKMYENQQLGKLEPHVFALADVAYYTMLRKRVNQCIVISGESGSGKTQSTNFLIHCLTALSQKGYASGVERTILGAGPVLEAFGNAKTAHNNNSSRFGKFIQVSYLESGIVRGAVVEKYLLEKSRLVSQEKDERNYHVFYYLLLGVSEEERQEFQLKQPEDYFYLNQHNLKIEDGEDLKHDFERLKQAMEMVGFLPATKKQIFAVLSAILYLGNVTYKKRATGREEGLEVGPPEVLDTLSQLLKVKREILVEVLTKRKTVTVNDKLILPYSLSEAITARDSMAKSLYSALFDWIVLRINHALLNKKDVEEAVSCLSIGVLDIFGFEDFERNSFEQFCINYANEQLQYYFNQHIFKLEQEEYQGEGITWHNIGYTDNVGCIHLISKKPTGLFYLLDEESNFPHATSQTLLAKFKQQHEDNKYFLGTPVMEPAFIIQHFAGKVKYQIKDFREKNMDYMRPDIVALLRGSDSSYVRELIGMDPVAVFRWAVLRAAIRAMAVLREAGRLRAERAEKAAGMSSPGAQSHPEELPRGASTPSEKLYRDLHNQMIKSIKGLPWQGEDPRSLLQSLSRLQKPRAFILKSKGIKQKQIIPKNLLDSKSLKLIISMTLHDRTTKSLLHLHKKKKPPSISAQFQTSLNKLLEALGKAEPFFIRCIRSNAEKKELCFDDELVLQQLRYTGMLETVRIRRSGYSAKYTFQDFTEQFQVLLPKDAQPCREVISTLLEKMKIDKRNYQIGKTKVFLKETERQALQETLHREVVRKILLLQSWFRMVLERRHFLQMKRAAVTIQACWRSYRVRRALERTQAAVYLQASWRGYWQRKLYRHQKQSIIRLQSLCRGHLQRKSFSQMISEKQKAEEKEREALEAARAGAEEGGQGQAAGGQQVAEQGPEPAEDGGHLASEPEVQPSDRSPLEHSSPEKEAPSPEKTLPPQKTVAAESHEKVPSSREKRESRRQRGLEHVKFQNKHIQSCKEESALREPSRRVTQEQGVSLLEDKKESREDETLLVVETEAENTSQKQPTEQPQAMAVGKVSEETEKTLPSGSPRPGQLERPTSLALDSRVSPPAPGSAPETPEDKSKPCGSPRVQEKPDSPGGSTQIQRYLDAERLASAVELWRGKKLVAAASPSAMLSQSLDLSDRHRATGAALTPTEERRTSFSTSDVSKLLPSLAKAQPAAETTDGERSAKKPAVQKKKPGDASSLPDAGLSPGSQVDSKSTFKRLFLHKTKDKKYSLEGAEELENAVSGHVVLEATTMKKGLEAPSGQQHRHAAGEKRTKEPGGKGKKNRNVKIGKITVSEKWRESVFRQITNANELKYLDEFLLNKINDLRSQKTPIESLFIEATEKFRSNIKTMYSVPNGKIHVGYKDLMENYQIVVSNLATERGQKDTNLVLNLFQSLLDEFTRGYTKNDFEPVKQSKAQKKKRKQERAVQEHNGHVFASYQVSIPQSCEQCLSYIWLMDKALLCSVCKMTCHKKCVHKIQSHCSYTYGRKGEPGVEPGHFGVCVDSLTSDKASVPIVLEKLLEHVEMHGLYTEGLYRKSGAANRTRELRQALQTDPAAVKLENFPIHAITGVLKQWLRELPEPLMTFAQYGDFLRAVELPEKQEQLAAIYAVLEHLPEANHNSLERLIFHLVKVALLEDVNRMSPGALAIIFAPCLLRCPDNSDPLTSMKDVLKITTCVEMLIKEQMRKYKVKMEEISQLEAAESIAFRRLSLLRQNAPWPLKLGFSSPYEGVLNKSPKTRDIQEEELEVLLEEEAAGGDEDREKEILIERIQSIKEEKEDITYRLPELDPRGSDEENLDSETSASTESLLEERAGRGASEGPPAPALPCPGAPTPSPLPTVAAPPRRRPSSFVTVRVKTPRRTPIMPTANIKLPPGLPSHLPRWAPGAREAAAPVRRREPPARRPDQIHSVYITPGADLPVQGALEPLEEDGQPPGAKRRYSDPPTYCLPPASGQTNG
Described as above. The class given is binding. Conditions: spectral counts, NFX coupled beads vs beads alone, human fibroblast extracts. The method, then:
as §1, §2, §3, §4

Turning to `O=C(N/N=C/c1ccc([N+](=O)[O-])o1)c1ccc(O)cc1` [NFX, (E)-4-hydroxy-N′-((5-nitrofuran-2-yl)methylene)benzohydrazide], the Fold change is given as 91.67 in test [1] and 34.52 in test [2].

Values taken from US20250025439A1, “DERIVATIVES OF NIFUROXAZIDE FOR USE IN THE TREATMENT OF MITOCHONDRIAL DISORDERS AND NEURODEGENERATIVE DISEASES” (priority 2021, published 2025).
